The text below walks through data of ChEMBL document CHEMBL5537154, “Smart glypican-3-targeting peptide-chlorin e6 conjugates for targeted photodynamic therapy of hepatocellular carcinoma” (Eur J Med Chem, 2024).

Peptide text beside a SMILES is read from it. Some results are limits rather than exact numbers.

The nature of data set [1]: Drug distribution in tumor of BALB/C nude mouse model xenografted with human HepG2 cells at 1 to 2 uM/kg, iv measured for 1 to 6 hrs by fluorescence imaging analysis. The conditions noted are these: in vivo, dose lower 1 µM/Kg, time lower 1 hrs, dose upper 2 µM/Kg, time upper 6 hrs. It counts as ADME, organism-based, Neoplasm. (In general: A xenograft is tissue or cells of one species grown in another, often human tumour cells in immunodeficient mice.)

The nature of data set [2]: Toxicity in BALB/C nude mouse model xenografted with human HepG2 cells assessed as change in liver weight at 1 to 2 uM/kg, iv administered every two days for 21 days along with 250 mW/cm2 light irradiation at 660 nm for 10 mins at 1 hr post-compound administration. It counts as organism-based. As to conditions: in vivo, 505.17 h, dose 1-2 µM/Kg, time 505.166 hrs; call rule not given here.
The nature of data set [3]: Toxicity in BALB/C nude mouse model xenografted with human HepG2 cells assessed as damage in heart at 1 to 2 uM/kg, iv administered every two days for 21 days along with 250 mW/cm2 light irradiation at 660 nm for 10 mins at 1 hr post-compound administration by H and E staining based analysis. It counts as organism-based. As to conditions: in vivo, 505.17 h, dose 1-2 µM/Kg, time 505.166 hrs.

A short description of data set [4]: Drug distribution in lung of BALB/C nude mouse model xenografted with human HepG2 cells at 1 to 2 uM/kg, iv measured for 1 to 4 hrs by fluorescence imaging analysis. As to conditions: in vivo, dose lower 1 µM/Kg, time lower 1 hrs, dose upper 2 µM/Kg, time upper 4 hrs. It counts as ADME, organism-based.
The nature of data set [5]: Antiproliferative activity against human HUVEC cells under dark condition by CCK8 assay. In kind it is toxicity, cell-based. On the technique in general: Tetrazolium dyes change colour on reduction, which living cells bring about.
The nature of data set [6]: Drug uptake in human HepG2 cells at 10 uM by confocal microscopy. It counts as ADME, cell-based. As to conditions: hepg2, 10 µM, TDE = time-dependent effect, time 4-24 hrs.
Data set [7] can be described thus: Aggregation property of compound in PBS. In kind it is physicochemical. The conditions noted are these: buffer.

As usually defined, the IC50 is the concentration that gives 50% inhibition. The low end stands for higher potency, the high end for lower potency. In the case of `C=Cc1c(C)c2cc3nc(c(CC(=O)O)c4[nH]c(cc5nc(cc1[nH]2)C(C)=C5CC)c(C)c4C(=O)NCCCC(=O)N[C@@H](CC(=O)O)C(=O)N[C@@H](Cc1cnc[nH]1)C(=O)N[C@@H](CC(C)C)C(=O)N[C@@H](C)C(=O)N[C@@H](CO)C(=O)N[C@@H](CC(C)C)C(=O)N[C@@H](Cc1c[nH]c2ccccc12)C(=O)N[C@@H](Cc1c[nH]c2ccccc12)C(=O)NCC(=O)N[C@H](C(=O)N[C@@H](CCC(=O)O)C(=O)N[C@@H](CC(C)C)C(=O)O)[C@@H](C)O)[C@@H](CCC(=O)O)[C@@H]3C` (HELM PEPTIDE1{[C=Cc1c(C)c2cc3nc(c(CC(=O)O)c4[nH]c(cc5nc(cc1[nH]2)C(C)=C5CC)c(C)c4C(=O)[*:2])[C@@H](CCC(=O)O)[C@@H]3C].[O=C(CCCN[*:1])[*:2]].D.H.L.A.S.L.W.W.G.T.E.L}$$$$V2.0), the Drug uptake entry in data set [1] is “Active”; in data set [4] it was “Not Active”; in data set [6], “Tde”. The Activity result in data set [2] is given as “Non-Toxic”; in data set [3], “Non-Toxic”; in data set [7], “Active”. In data set [5], this molecule came in with an IC50 of more than 200 µM.
